Experimental data taken from patent US4556677A, “Alkane and alkene derivatives and their use” (Farmos Group Ltd., priority 1981, dated 1985).

Assays:
[1] = biological target: T1, estrogen receptors (Rattus norvegicus, UniProt P06211); experiment: affinity to estrogen receptors, competition with 3H-labelled 17-β-estradiol (dextran-charcoal method); format: binding; details: rat uterus cytosol, Table 1; read-out: Affinity (concentration of compound where 50% competition (inhibition) with 3H-estradiol occurred)
T1 construct: rat uterus cytosol preparation; from tissue; host or cells: rat uterus cytosol
T1 sequence (P06211 1-600): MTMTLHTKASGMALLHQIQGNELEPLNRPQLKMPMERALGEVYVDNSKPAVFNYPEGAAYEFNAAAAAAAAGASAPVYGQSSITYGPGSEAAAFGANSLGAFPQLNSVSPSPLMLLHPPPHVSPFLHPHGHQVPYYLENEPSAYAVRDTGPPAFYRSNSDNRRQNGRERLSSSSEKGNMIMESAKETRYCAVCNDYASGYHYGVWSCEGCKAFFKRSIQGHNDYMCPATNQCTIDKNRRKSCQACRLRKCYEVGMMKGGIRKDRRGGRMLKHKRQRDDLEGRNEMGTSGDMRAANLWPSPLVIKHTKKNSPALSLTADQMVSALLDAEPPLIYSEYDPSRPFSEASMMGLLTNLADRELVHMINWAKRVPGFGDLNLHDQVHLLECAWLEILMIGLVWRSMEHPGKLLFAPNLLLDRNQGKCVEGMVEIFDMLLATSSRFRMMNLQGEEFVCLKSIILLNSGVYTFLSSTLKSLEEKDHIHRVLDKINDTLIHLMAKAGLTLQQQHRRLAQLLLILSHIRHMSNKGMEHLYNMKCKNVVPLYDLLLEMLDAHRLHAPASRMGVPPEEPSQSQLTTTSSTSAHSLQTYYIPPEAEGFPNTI
Experimental: The affinity to estrogen receptors was determined by the ability of the molecules to compete with ^3 H-labelled 17-β-estradiol in rat uterus cytosol preparation. After incubation, receptor-bound and receptor-unbound ligands were separated by a known dextrancharcoal method. (Korenman, S. G.: "Comparative binding affinity of estrogens and its relation to estrogenic potency". Steroids 13: 163-177, 1969). […] The results in table 1 are shown as follows: | with ^3 H--estradiol occurred

[2] = tested on: immature mouse uterus; experiment: estrogenic effect in vivo, immature mouse uterus weight
Experimental: (§1) The estrogen-antiestrogen (progesterone-antiprogesterone) effect in vivo was determined as follows:
The estrogenic properties of the molecules were determined by administering the molecules, suspended in sesam oil, subcutaneously to 21 days old immature mice on three consecutive days. The mice were killed on the fourth day and the uterus was weighed. Estradiol (positive control) increases the weight of the uterus. The weight correlates with the estrogenic effect of the molecules.
The estrogenic effect of compounds of the invention as measured by their ability to increase the weight of immature mouse uterus was usually far less than that of oestradiol, the positive control. […] At the dose of 0.5 mg/kg the oestrogenic effect of compound 1, 7 and 8 were respectively 20%, 75% and 83% less and at the dose of 5 mg/kg the oestrogenic effect of compound 2 was 60% less than that of oestradiol 0.05 mg/kg.
(§2) In Table 2 a summary of the oestrogenic/antioestrogenic and progestanic/antiprogestanic effect of some of the compounds can be seen. The percentages refer to increase/reduction in mice uterus weights.

[3] = tested on: immature mouse uterus; experiment: antiestrogenic effect in vivo, inhibition of oestradiol induced uterus weight increase in immature mice
Experimental: as §1
The antiestrogenic effects of the molecules were determined in a similar manner in immature mice. In this case, the ability of the molecules to inhibit estrogen-induced uterus weight increase was investigated, too.
The compound 1 at a dose of 0.5 mg/kg caused a 50% inhibition of oestradiol induced effect on mouse uterus.
as §2

[4] = tested on: mouse uterus; experiment: progestanic effect in vivo, reduction of mouse uterus weight; details: given alone
Experimental: as §1
(§3) The (anti)progestanic effects were studied in a similar manners as the estrogenic ones. Medroxyprogesterone acetate, which decreases uterus weight, was used as reference.
(§4) The progestanic and antiprogestanic effects of compounds were measured as described earlier. The compound No. 2 reduced the weight of mouse uterus by 49% compared to control while medroxyprogesterone acetate gave 40% reduction.
as §2

[5] = tested on: mouse uterus; experiment: antiprogestanic/synergistic effect in vivo, given together with medroxyprogesterone acetate, mouse uterus weight
Experimental: as §1, §3, §4, §2

[6] = tested on: MCF-7 human mammary adenocarcinoma cell line; experiment: anti-tumour effect in vitro, growth of MCF-7 cells (bioluminescence ATP assay); format: cell-based; details: Homo sapiens, MCF7; MCF-7, Table 3; read-out: Antitumour effect (IC50 = concentration of compound where 50% inhibition of cell growth could be seen)
Experimental: The anti-tumour effect was studied in vitro as follows:
The growth of MCF-7 cell line (human mammary adenocarcinoma, known to be estrogen-dependent) was evaluated in the presence or absence of estradiol, medroxyprogesterone acetate or the molecules to be investigated. Combinations of molecule plus estradiol and molecule plus medroxyprogesterone were also studied. The amount of living cells after 4 h, 24 h and 48 h incubations were determined by bioluminescence assay (intracellular ATP determination).
The antitumour effects of the compounds had been tested in vitro against MCF-7 human mammary adenocarcinoma cell line and in vivo against DMBA-induced rat mammary adenocarcinomas and transplantable mammary adenocarcinoma.
In table 3 the antitumour effects of certain compounds can be seen.

[7] = tested on: mouse uterus; experiment: antiprogestanic/synergistic effect in vivo, given together with medroxyprogesterone acetate, mouse uterus weight; details: vs 20% for the acetate alone

Q: Which results are given for CC/C(=C(\c1ccccc1)c1ccc(OCCN(CC)CC)cc1)C1CCCC1 [Compound 8, (Z)-2-cyclopentyl-1-[p-(N,N-diethyl-2-aminoethoxy)phenyl]-1-phenyl-1-butene]?
A: IC50 [1]: 100 to 1000 nM; oestrogenic effect, % less than that of oestradiol 0.05 mg/kg ([2]; 0.5 mg/kg, s.c., immature mice): 83%; estrogenic effect (in words) ([2]; immature mouse uterus weight): dose dependent; estrogenic effect at increased doses (in words) ([2]; increased doses (above 0.05 mg/kg), given alone): the estrogenic effect became evident; inhibition of oestradiol induced effect on mouse uterus ([3]; 5 mg/kg): 30%; Given with oestradiol: reduction in mice uterus weight ([3]; Table 2, 5 mg/kg, with oestradiol 0.05 mg/kg): 32%; progestanic effect (in words) ([4]; 0.05 mg/kg): could be considered to be a progestanic one; decrease in uterus weight ([4]; 0.05 mg/kg (lowest dose)): 12%; Given with medroxyprogesterone acetate: reduction in mice uterus weight ([5]; Table 2, 0.5 mg/kg, with medroxyprogesterone acetate 0.06 mg/kg): 16%; effect with medroxyprogesterone acetate at higher doses (in words) ([5]; higher doses, together with medroxyprogesterone acetate): an antiprogestanic effect was achieved; antiprogestanic / synergistic effect with medroxyprogesterone acetate (in words) ([5]; together with medroxyprogesterone acetate): neither synergism nor inhibition of medroxyprogesterone acetate was seen; IC50 [6]: 1000 to 5000 nM; decrease in the weight of mouse uterus together with medroxyprogesterone acetate [7]: 16%
